The record followed here is ChEMBL document CHEMBL4190389, “Synthesis and activity of di- or trisubstituted N-(phenoxyalkyl)- or N-{2-[2-(phenoxy)ethoxy]ethyl}piperazine derivatives on the central nervous system” (Bioorg Med Chem Lett, 2018).

Bounds are passed on as bounds.

The target of assay [1] is T1, 5-hydroxytryptamine receptor 1A (Homo sapiens, UniProt P08908).
T1 sequence (P08908 whole entry): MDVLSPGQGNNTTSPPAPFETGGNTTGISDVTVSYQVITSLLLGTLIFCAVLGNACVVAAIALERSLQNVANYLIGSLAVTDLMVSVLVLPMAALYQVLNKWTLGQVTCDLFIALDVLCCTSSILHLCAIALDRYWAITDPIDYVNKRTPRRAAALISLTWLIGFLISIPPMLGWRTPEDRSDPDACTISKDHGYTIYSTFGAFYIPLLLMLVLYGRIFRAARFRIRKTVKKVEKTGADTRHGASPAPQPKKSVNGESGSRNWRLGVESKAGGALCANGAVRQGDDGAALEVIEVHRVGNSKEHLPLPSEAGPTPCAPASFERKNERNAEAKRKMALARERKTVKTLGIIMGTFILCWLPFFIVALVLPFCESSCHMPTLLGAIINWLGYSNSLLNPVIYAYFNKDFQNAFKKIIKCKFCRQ
Briefly: Displacement of [3H]8-OH-DPAT from human 5-HT1A receptor expressed in HEK293 cell membranes after 1 hr.

Assay [2] concerns the target T2, 5-hydroxytryptamine receptor 2A (Homo sapiens, UniProt P28223). Briefly: Displacement of [3H]-ketanserin from recombinant human 5-HT2A receptor after 60 mins by liquid scintillation counting method.
For a further assay, the system named is Mus musculus. Briefly: Antidepressant-like activity in ip dosed Albino Swiss CD-1 mouse assessed as decrease in immobility time administered […] prior to test measured for last 4 mins of 6 mins observation by forced swim test (reference value: 153.9 to 201.9 secs). In kind it is functional.
The target of assay [3] is T3, 5-hydroxytryptamine receptor 1A (Rattus norvegicus, UniProt P19327).
T3 sequence (P19327 whole entry): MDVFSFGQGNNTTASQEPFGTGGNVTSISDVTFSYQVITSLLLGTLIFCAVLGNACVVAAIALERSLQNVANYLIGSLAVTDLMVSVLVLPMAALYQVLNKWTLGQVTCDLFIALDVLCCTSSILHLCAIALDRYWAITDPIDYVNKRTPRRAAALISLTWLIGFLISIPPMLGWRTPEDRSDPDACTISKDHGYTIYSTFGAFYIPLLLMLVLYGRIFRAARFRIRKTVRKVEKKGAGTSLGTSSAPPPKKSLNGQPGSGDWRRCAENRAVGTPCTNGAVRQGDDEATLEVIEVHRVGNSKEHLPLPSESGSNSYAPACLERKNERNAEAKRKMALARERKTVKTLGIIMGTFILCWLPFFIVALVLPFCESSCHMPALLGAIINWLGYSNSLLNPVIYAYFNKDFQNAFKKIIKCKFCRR
The assay can be described thus: Displacement of [3H]8-OH-DPAT from Wistar rat 5-HT1A receptor after 20 mins by liquid scintillation counting method.

Assay [4] concerns the target T4, Adrenergic receptor alpha-2 (Rattus norvegicus, UniProt P22086+P19328+P22909).
T4 sequence (P22086 whole entry): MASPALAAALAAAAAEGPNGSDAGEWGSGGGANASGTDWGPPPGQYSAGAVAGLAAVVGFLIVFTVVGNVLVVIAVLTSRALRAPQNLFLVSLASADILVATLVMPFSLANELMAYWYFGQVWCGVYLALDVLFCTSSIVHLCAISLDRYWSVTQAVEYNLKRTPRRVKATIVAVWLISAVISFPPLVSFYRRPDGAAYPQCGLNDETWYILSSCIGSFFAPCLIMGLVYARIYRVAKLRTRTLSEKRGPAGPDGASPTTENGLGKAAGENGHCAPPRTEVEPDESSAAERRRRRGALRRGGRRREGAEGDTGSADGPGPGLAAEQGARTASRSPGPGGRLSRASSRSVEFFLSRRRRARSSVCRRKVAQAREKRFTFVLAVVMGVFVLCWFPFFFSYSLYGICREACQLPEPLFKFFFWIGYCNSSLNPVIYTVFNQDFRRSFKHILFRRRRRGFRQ
T4 sequence (P19328 whole entry): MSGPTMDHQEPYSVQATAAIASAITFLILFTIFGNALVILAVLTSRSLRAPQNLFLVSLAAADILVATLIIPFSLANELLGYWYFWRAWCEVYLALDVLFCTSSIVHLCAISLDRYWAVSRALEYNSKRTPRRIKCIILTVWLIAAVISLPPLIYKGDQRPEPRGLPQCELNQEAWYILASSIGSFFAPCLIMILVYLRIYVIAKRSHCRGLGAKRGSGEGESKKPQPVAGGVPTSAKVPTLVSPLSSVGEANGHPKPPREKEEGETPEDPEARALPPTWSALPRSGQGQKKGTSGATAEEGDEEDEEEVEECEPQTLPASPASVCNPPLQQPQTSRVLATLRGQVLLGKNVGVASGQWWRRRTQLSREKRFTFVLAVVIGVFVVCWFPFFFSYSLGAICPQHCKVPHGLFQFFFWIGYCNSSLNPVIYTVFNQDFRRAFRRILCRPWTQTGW
T4 sequence (P22909 whole entry): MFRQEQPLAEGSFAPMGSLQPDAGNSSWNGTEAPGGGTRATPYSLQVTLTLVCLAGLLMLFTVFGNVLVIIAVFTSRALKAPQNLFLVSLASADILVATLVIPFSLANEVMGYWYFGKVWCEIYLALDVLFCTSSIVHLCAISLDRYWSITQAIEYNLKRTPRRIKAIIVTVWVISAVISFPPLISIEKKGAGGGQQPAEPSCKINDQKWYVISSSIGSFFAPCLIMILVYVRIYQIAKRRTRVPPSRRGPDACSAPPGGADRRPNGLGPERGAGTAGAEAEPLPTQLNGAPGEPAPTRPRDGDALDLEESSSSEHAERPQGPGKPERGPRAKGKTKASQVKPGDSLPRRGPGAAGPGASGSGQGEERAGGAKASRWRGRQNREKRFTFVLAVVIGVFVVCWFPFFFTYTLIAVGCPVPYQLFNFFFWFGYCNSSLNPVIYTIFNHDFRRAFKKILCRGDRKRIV
The assay can be described thus: Displacement of [3H]clonidine from rat cerebral cortex adrenergic receptor alpha2 by liquid scintillation counting method. Background: Displacement assays read how much labelled ligand stays bound in the presence of the test substance.

Assay [5] deals with 5-hydroxytryptamine receptor 7 (Homo sapiens, UniProt P34969). The assay can be described thus: Displacement of [3H]-LSD from recombinant human 5-HT7 receptor after 60 mins by liquid scintillation counting method.
The target in assay [6] is T5, Adrenergic receptor alpha-1 (Rattus norvegicus, UniProt P15823+P23944+P43140).
T5 sequence (P15823 whole entry): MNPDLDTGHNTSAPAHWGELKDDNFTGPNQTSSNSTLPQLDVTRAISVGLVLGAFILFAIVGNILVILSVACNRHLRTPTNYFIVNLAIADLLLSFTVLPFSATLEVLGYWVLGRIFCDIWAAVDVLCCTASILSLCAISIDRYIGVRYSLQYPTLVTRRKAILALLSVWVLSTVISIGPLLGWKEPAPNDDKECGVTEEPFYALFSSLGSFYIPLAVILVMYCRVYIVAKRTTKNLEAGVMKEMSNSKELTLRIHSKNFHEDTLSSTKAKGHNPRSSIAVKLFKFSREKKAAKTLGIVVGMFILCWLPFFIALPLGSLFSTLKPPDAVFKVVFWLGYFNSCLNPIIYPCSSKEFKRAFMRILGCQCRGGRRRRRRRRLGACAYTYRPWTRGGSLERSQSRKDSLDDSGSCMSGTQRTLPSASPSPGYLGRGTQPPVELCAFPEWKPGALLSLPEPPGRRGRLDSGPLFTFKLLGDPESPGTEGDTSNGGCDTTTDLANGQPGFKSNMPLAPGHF
T5 sequence (P23944 whole entry): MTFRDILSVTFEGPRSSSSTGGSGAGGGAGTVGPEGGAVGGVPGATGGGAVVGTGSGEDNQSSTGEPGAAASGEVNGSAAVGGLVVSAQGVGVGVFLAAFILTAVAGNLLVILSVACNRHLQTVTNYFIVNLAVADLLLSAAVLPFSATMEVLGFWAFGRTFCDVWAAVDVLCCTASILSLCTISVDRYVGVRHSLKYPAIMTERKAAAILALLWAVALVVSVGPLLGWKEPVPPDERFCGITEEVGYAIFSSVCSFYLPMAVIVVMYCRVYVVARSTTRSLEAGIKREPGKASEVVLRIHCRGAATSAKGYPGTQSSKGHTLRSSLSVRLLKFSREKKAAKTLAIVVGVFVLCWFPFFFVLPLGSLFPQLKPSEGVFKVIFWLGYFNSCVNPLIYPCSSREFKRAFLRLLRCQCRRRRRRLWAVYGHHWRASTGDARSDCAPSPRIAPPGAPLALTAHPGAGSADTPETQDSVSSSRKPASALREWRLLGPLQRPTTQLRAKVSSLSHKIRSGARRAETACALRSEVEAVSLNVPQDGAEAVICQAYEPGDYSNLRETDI
T5 sequence (P43140 whole entry): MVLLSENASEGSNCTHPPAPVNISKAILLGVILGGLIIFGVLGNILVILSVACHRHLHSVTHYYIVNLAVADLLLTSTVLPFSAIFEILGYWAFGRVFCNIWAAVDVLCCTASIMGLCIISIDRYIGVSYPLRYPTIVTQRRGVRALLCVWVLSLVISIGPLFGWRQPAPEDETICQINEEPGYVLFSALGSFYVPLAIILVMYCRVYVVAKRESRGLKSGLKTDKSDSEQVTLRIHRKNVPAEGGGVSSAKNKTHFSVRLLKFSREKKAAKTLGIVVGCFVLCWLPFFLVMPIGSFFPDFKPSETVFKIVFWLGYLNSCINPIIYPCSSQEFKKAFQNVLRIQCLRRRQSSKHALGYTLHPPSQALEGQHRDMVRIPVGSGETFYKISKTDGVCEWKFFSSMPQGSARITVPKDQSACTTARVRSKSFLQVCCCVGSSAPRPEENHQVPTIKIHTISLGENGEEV
Briefly: Displacement of [3H]prazosin from rat cerebral cortex adrenergic receptor alpha1 by liquid scintillation counting method.

The target of a further assay is D(2) dopamine receptor (Homo sapiens, UniProt P14416). Briefly: Binding affinity to D2 receptor (unknown origin).
Assay [7] has as its target T2, 5-hydroxytryptamine receptor 2A. The assay can be described thus: Binding affinity to 5-HT2A receptor (unknown origin).
The target in assay [8] is T1, 5-hydroxytryptamine receptor 1A. Briefly: Binding affinity to 5-HT1A receptor (unknown origin).
Assay [9] concerns the target T2, 5-hydroxytryptamine receptor 2A. The assay can be described thus: Agonist activity at human 5-HT2A receptor expressed in CHO-K1 cells co-expressing Galpha16 assessed as increase in calcium mobilization measured for 30 secs by aequorin-derived luminescence assay. In kind it is functional, cell-based.

T2 sequence (P28223 whole entry): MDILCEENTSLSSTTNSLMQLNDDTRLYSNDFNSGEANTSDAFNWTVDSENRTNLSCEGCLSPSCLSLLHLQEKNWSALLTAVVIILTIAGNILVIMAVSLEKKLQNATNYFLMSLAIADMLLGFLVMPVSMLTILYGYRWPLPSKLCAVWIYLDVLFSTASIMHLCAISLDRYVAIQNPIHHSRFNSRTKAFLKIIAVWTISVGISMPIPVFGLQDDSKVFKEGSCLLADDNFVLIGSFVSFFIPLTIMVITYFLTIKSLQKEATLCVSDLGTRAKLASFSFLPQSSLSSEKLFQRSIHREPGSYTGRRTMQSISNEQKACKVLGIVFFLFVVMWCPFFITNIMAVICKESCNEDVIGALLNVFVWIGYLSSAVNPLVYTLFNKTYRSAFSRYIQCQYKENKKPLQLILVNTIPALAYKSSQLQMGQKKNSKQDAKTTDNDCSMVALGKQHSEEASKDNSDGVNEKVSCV
Sequence of D(2) dopamine receptor (P14416 whole entry): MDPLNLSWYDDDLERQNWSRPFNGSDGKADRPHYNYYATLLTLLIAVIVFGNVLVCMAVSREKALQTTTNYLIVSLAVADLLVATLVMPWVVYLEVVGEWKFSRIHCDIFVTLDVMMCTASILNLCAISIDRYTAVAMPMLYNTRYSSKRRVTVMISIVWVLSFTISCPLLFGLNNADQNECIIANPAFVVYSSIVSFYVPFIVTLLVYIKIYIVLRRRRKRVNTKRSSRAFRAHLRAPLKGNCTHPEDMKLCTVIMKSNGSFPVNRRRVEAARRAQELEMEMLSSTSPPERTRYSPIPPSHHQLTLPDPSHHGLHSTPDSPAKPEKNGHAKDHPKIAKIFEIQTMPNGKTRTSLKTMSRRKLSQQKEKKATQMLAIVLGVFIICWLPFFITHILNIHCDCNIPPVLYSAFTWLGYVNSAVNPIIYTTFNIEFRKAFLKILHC
Sequence of 5-hydroxytryptamine receptor 7 (P34969 whole entry): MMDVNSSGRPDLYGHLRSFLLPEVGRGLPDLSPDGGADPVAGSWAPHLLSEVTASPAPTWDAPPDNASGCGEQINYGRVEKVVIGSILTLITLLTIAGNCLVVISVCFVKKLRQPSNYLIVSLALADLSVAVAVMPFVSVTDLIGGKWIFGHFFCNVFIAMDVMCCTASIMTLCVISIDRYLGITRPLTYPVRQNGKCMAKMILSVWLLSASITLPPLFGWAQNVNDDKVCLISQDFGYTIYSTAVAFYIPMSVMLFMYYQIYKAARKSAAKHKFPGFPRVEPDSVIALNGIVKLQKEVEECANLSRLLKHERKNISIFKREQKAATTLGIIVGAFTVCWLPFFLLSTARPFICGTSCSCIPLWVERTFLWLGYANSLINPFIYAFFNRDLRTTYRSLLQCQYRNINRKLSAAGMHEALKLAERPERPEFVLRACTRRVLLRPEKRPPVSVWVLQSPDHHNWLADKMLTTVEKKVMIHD

As usually defined, the Ki is the equilibrium dissociation constant of an inhibitor or competing ligand from its target. As for `COc1ccccc1N1CCN(CCCOc2c(C)cc(C)cc2C)CC1.Cl`, the inhibition constant Ki in assay [1] is under 1 nM; in assay [2], 2830 nM. In the assay with Mus musculus, the ED worked out at 5 mg/kg.

Consider `COc1ccccc1N1CCN(CCCOc2c(C)cccc2C)CC1.Cl`, for which the Ki in assay [2] was found to be 192 nM; in assay [3], 0.7 nM; in [4], 341 nM; in assay [5], 26 nM.

Regarding `OCCOCCN1CCN(C(c2ccccc2)c2ccc(Cl)cc2)CC1` (stereo not drawn) [HYDROXYZINE], the inhibition constant Ki was 300 nM in [6], 378 nM on D(2) dopamine receptor and 50 nM in assay [7].

As to `COc1ccccc1N1CCN(CCCNc2cc(=O)n(C)c(=O)n2C)CC1`, the inhibition constant (Ki) was 127.9 nM in assay [6] and 213 nM in assay [8].

As a reminder, the EC50 is the concentration giving half of the maximal effect. For `CC(N)Cc1c[nH]c2ccc(O)cc12` (stereo not drawn), in assay [9], the 50% effective concentration (EC50) was 2 nM.
